Test [1] relates to Pseudotyped HCV GT1b particles (HCVpp), entry into Huh7-high CD81 cells. In words: microbe, parasite or virus in culture. It counts as cell-based, HCV GT1b Con1 strain.
The test system of test [2] is pseudotyped VSV G particles (VSVpp) in Huh7-high CD81 cells. Description: microbe, parasite or virus in culture. It counts as cell-based, vesicular stomatitis virus. Conditions: Vesicular stomatitis virus, 72 h, read-out: VSVpp (EC50, μM).
[3] abbreviates: Hepatitis C virus, GT1B, 72 h, read-out: HCVpp GT-1b (EC50, μM).

We go through 28 molecules from patent publication US9693997B2, “Antiviral compounds” (priority 2013, dated 2017).

The term EC50 denotes the midpoint of the concentration-response curve.

Counter-ions that a name gives are not always drawn. Like-named read-outs stand apart in the source and are kept apart here.

Turning to `Nc1nc(Nc2cc(Cl)c(-c3ccc(C(=O)NCCO)c(F)c3)c(C(F)(F)F)c2)n[nH]1` [Compound 293, 4′-(5-amino-1H-1,2,4-triazol-3-ylamino)-2′-chloro-3-fluoro-N-(2-hydroxyethyl)-6′-(trifluoromethyl)biphenyl-4-carboxamide], the results for the EC50 in test [1] (setting [3]) and in test [2] were 0.139 µM and 15.7 µM, respectively.
For the molecule `CS(=O)(=O)c1cccc(-c2c(F)cc(Nc3nc(N)n[nH]3)cc2F)c1` [Compound 80, N^5-(2,6-difluoro-3′-(methylsulfonyl)biphenyl-4-yl)-1H-[1,2,4]-triazole-3,5-diamine], the EC50 in test [1] (setting [3]) is 0.286 µM; in test [2] it was above 10 µM.
Regarding `Nc1nc(Nc2cc(Cl)c(-c3ccc(NC(=O)C4CCC(F)(F)CC4)cc3)c(Cl)c2)n[nH]1` [Compound 250, 4,4-Difluorocyclohexanecarboxylic acid [4′-(5-amino-1H-[1,2,4]triazol-3-ylamino)-2′,6′-dichloro-biphenyl-4-yl]-amide], the EC50 in test [1] (setting [3]) is 0.013 µM; in test [2], 14 µM.
Consider `Nc1nc(Nc2cc(Cl)c(-c3ccccc3)c(C(F)(F)F)c2)n[nH]1` [Compound 201, N3-(2-chloro-6-(trifluoromethyl)biphenyl-4-yl)-1H-1,2,4-triazole-3,5-diamine 2,2,2-trifluoroacetate], for which the figures for the EC50 in test [1] (setting [3]) and in test [2] were 0.405 µM and 58.3 µM, respectively.
Take `Nc1nc(Nc2cc(Cl)c(-c3ccc4c(c3)NC(=O)C4)c(Cl)c2)n[nH]1` [Compound 256]: the EC50 stood at 0.594 µM in test [1] (setting [3]) and 8.69 µM in test [2].
Regarding `CC(C)(C)OC(=O)N1CC[C@H](Oc2ccc(-c3c(Cl)cc(Nc4n[nH]c(N)n4)cc3Cl)cc2)C1` [Compound 273, (S)-3-[4′-(5-Amino-1H-[1,2,4]triazol-3-ylamino)-2′,6′-dichloro-biphenyl-4-yloxy]-pyrrolidine-1-carboxylic acid tert-butyl ester], the results for the EC50 in test [1] (setting [3]) and in test [2] were 0.28 µM and above 10 µM, respectively.
With `Nc1nc(Nc2cc(Cl)c(-c3ccc(OC[C@@H]4CCCN4)cc3)c(C(F)(F)F)c2)n[nH]1` [Compound 270, N*3*-[6-Chloro-4′-((S)-1-pyrrolidin-2-ylmethoxy)-2-trifluoromethyl-biphenyl-4-yl]-1H-[1,2,4]triazole-3,5-diamine], the EC50 is 0.117 µM in test [1] (setting [3]) and 33.3 µM in test [2].
For `CC(C)(C)OC(=O)N1CCC[C@@H]1COc1ccc(-c2c(Cl)cc(Nc3n[nH]c(N)n3)cc2C(F)(F)F)cc1` [Compound 267, (R)-2-[4′-(5-Amino-1H-[1,2,4]triazol-3-ylamino)-2′-chloro-6′-trifluoromethyl-biphenyl-4-yloxymethyl]-pyrrolidine-1-carboxylic acid tert-butyl ester], the EC50 in test [1] (setting [3]) was 0.048 µM; in test [2], 9.62 µM.
Turning to `CSc1ccc(-c2ccc(Nc3n[nH]c(N)n3)cc2Cl)c(F)c1` [Compound 156, N*3*-(2-Chloro-2′-fluoro-4′-methylsulfanyl-biphenyl-4-yl)-1H-[1,2,4]triazole-3,5-diamine], the EC50 in test [1] (setting [3]) worked out at 3.77 µM; in test [2], 11.3 µM.
Turning to `Nc1nc(Nc2cc(Cl)c(-c3ccc4[nH]ncc4c3)c(Cl)c2)n[nH]1` [Compound 257, N-3-[3′,5′-dichlorophenyl-4′-(1H-indazol-5-yl)-phenyl]-1H-[1,2,4]triazole-3,5-diamine], the EC50 in test [1] (setting [3]) worked out at 0.343 µM; in test [2], 2.73 µM.
The corresponding values for `Nc1nc(Nc2cc(Cl)c(-c3ccc(S(=O)(=O)CC4CCNCC4)cc3)c(C(F)(F)F)c2)n[nH]1` [Compound 40, N*3*-[2-Chloro-4′-(piperidin-4-ylmethanesulfonyl)-6-trifluoromethyl-biphenyl-4-yl]-1H-[1,2,4]triazole-3,5-diamine; hydrochloride] are 0.073 µM and 31.7 µM.
In the case of `CS(=O)(=O)Nc1ccc(-c2c(Cl)cc(Nc3n[nH]c(N)n3)cc2Cl)c(F)c1` [Compound 28, N-[4′-(5-Amino-1H-[1,2,4]triazol-3-ylamino)-2′,6′-dichloro-2-fluoro-biphenyl-4-yl]-methanesulfonamide], the EC50 in test [1] (setting [3]) was found to be 0.083 µM; in test [2], 4.02 µM.
`COc1ccc(-c2c(Cl)cc(Nc3n[nH]c(N)n3)cc2C(F)(F)F)cc1S(=O)(=O)NCCO` [Compound 175, 4′-(5-amino-1H-1,2,4-triazol-3-ylamino)-2′-chloro-N-(2-hydroxyethyl)-4-methoxy-6′-(trifluoromethyl)biphenyl-3-sulfonamide]: the EC50 in test [1] (setting [3]) was 0.018 µM; in test [2], above 10 µM.
With `Nc1nc(Nc2cc(Cl)c(-c3ccc(S(=O)(=O)N4CC5(COC5)C4)cc3)c(C(F)(F)F)c2)n[nH]1` [Compound 69, N*3*-[6-Chloro-4′-(2-oxa-6-aza-spiro[3.3]heptane-6-sulfonyl)-2-trifluoromethyl-biphenyl-4-yl]-1H-[1,2,4]triazole-3,5-diamine], the EC50 in test [1] (setting [3]) is 0.033 µM; in test [2], above 10 µM.
Take `COCCN1CCC(Oc2ccc(-c3c(Cl)cc(Nc4n[nH]c(N)n4)cc3C(F)(F)F)cc2)CC1` [Compound 143, N*3*-{6-Chloro-4′-[1-(2-methoxy-ethyl)-piperidin-4-yloxy]-2-trifluoromethyl-biphenyl-4-yl}-1H-[1,2,4]triazole-3,5-diamine hydrochloride]: the EC50 in test [1] (setting [3]) was 0.231 µM; in test [2] it was 8.98 µM.
`Nc1nc(Nc2ccc(-c3ccccc3Cl)c(C(F)(F)F)c2)n[nH]1` [Compound 153, N*3*-(2′-Chloro-2-trifluoromethyl-biphenyl-4-yl)-1H-[1,2,4]triazole-3,5-diamine]: the EC50 in test [1] (setting [3]) was 1.81 µM; in test [2], 9.61 µM.
On to `CC(C)(C)NS(=O)(=O)c1ccc(-c2c(Cl)cc(Nc3n[nH]c(N)n3)cc2Cl)cc1` [Compound 164, 4′-(5-amino-1H-1,2,4-triazol-3-ylamino)-N-tert-butyl-2′,6′-dichlorobiphenyl-4-sulfonamide], for which the figures for the EC50 in test [1] (setting [3]) and in test [2] were 0.004 µM and 7.06 µM, respectively.
In the case of `COc1ccc(-c2c(Cl)cc(Nc3n[nH]c(N)n3)cc2C(F)(F)F)cc1S(=O)(=O)N(CC(F)(F)F)C1CCNCC1` [Compound 234, 4′-(5-Amino-1H-[1,2,4]triazol-3-ylamino)-6′-chloro-4-methoxy-2′-trifluoromethyl-biphenyl-3-sulfonic acid piperidin-4-yl-(2,2,2-trifluoro-ethyl)-amide; compound with trifluoro-acetic acid], the results for the EC50 in test [1] (setting [3]) and in test [2] were 0.005 µM and above 10 µM, respectively.
`Nc1nc(Nc2cc(Cl)c(-c3ccc(OC4CCNCC4)cc3)c(C(F)(F)F)c2)n[nH]1` [Compound 139, N*3*-[6-Chloro-4′-(piperidin-4-yloxy)-2-trifluoromethyl-biphenyl-4-yl]-1H-[1,2,4]triazole-3,5-diamine hydrochloride]: the EC50 in test [1] (setting [3]) turned out to be 0.042 µM; in test [2] it was 5.66 µM.
In the case of `COc1ccc(-c2c(Cl)cc(Nc3n[nH]c(N)n3)cc2C(F)(F)F)cc1S(=O)(=O)NC1CCN(C(C)=O)CC1` [Compound 227, 4′-(5-Amino-1H-[1,2,4]triazol-3-ylamino)-6′-chloro-4-methoxy-2′-trifluoromethyl-biphenyl-3-sulfonic acid (1-acetyl-piperidin-4-yl)-amide], the EC50 is 0.042 µM in test [1] (setting [3]) and above 10 µM in test [2].
Take `Nc1nc(Nc2cc(Cl)c(-c3ccc(F)c(C(=O)NCCO)c3)c(C(F)(F)F)c2)n[nH]1` [Compound 294, 4′-(5-amino-1H-1,2,4-triazol-3-ylamino)-2′-chloro-4-fluoro-N-(2-hydroxyethyl)-6′-(trifluoromethyl)biphenyl-3-carboxamide]: the figures for the EC50 in test [1] (setting [3]) and in test [2] were 0.544 µM and 38.3 µM, respectively.
Turning to `Nc1nc(Nc2cc(Cl)c(-c3ccc4[nH]c(=O)[nH]c4c3)c(Cl)c2)n[nH]1` [Compound 255], the results for the EC50 in test [1] (setting [3]) and in test [2] were 0.42 µM and above 10 µM, respectively.
The corresponding values for `CN1CCN(S(=O)(=O)c2ccc(-c3c(Cl)cc(Nc4n[nH]c(N)n4)cc3C(F)(F)F)cc2)CC1` [Compound 22, N*3*-[2-Chloro-4′-(4-methyl-piperazine-1-sulfonyl)-6-trifluoromethyl-biphenyl-4-yl]-1H-[1,2,4]triazole-3,5-diamine] are 0.053 µM and 13.5 µM.
For the molecule `COc1ccc(-c2c(Cl)cc(Nc3n[nH]c(N)n3)cc2C(F)(F)F)cc1S(=O)(=O)N[C@H]1CC[C@H](O)CC1` [Compound 190, 4′-(5-amino-1H-1,2,4-triazol-3-ylamino)-2′-chloro-N-(trans-4-hydroxycyclohexyl)-4-methoxy-6′-(trifluoromethyl)biphenyl-3-sulfonamide], the values for the EC50 in test [1] (setting [3]) and in test [2] were 0.046 µM and 56.1 µM, respectively.
For the molecule `NCCCCOc1ccc(-c2c(Cl)cc(Nc3n[nH]c(N)n3)cc2Cl)cc1` [Compound 49, N*3*-[4′-(4-Amino-butoxy)-2,6-dichloro-biphenyl-4-yl]-1H-[1,2,4]triazole-3,5-diamine; trifluoro-acetate], the EC50 is 0.455 µM in test [1] (setting [3]) and above 10 µM in test [2].
Turning to `COc1ccc(-c2c(Cl)cc(Nc3n[nH]c(N)n3)cc2C(F)(F)F)cc1S(=O)(=O)NC1CCNCC1` [Compound 222, 4′-(5-Amino-1H-[1,2,4]triazol-3-ylamino)-6′-chloro-4-methoxy-2′-trifluoromethyl-biphenyl-3-sulfonic acid piperidin-4-ylamide; compound with trifluoro-acetic acid], in test [1] (read-out: HCVpp GT-1b (EC50)), the EC50 was found to be 0.014 µM.
Consider `COc1ccc(-c2c(Cl)cc(Nc3n[nH]c(N)n3)cc2C(F)(F)F)cc1S(N)(=O)=O` [Compound 180, 4′-(5-amino-1H-1,2,4-triazol-3-ylamino)-2′-chloro-4-methoxy-6′-(trifluoromethyl)biphenyl-3-sulfonamide], for which, in test [1] (setting [3]), the EC50 came out at 0.036 µM.
As to `COc1ccc(-c2c(Cl)cc(Nc3n[nH]c(N)n3)cc2C(F)(F)F)cc1S(=O)(=O)NC1CCOCC1` [Compound 168, 4′-(5-amino-1H-1,2,4-triazol-3-ylamino)-2′-chloro-4-methoxy-N-(tetrahydro-2H-pyran-4-yl)-6′-(trifluoromethyl)biphenyl-3-sulfonamide], the EC50 in test [1] (setting [3]) is 0.011 µM.
